Laboratory results taken from PubChem BioAssay (NCI).
Several values for one entry are separate records, joined by “and”; a condition that tells them apart may be missing. Equal values may be shown once.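 Values below derive from 48-hour exposures of cells grown in 96-well plates, with endpoints linearly interpolated between the two concentrations bracketing the appropriate inhibition level. GI50 = concentration required for 50% inhibition of growth. TGI is the concentration that stops growth completely.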

Columns and labels:
Experiment in all cases: DTP human tumour cell line panel, 48 h
UO-31 renal = test system: UO-31 renal
OVCAR-5 ovarian = test system: OVCAR-5 ovarian
SR leukemia = test system: SR leukemia
RPMI-8226 leukemia = test system: RPMI-8226 leukemia
SK-MEL-5 melanoma = test system: SK-MEL-5 melanoma
ACHN renal = test system: ACHN renal
EKVX NSCLC = test system: EKVX NSCLC
MOLT-4 leukemia = test system: MOLT-4 leukemia
SN12C renal = test system: SN12C renal
CAKI-1 renal = test system: CAKI-1 renal

Structure (SMILES) | TGI (UO-31 renal) [µM] | TGI (OVCAR-5 ovarian) | TGI (SR leukemia) [µM] | TGI (RPMI-8226 leukemia) | TGI (SK-MEL-5 melanoma) | TGI (ACHN renal) | TGI (EKVX NSCLC) | TGI (MOLT-4 leukemia) | TGI (SN12C renal) | TGI (CAKI-1 renal) | GI50 (OVCAR-5 ovarian) [µM] | GI50 (RPMI-8226 leukemia) [µM] | GI50 (SK-MEL-5 melanoma) [µM] | GI50 (ACHN renal) [µM] | GI50 (EKVX NSCLC) [µM] | GI50 (MOLT-4 leukemia) [µM] | GI50 (CAKI-1 renal) [µM]
Cc1nn(C(=O)c2ccccc2O)c2c1C(c1ccc([N+](=O)[O-])cc1)SC(N)=N2 (configuration not stated) | > 10 | > 10 µM | > 10 | > 10 µM | > 10 µM | > 8.37 µM | > 10 µM | > 10 µM | > 10 µM | > 10 µM | – | – | – | – | – | – | –
O=C(/C=C/CC(O)(c1ccccc1)c1ccccc1)Nc1ccccc1Cl | > 100 | > 100 µM | > 100 | > 100 µM | > 100 µM | > 100 µM | > 100 µM | > 100 µM | > 100 µM | > 100 µM | – | – | – | – | – | – | –
CC(C)(C)C#CI1OC(=O)c2ccccc21 | 14.6 | 21.9 µM | 3.74 | 5.11 µM | 15.5 µM | 8.42 µM | 17.5 µM | 10 µM | 19 µM | 7.21 µM | – | – | – | – | – | – | –
COC(=O)c1ccc2cc(O)ccc2c1 | > 100 | > 100 µM | 81.9 | > 100 µM | > 100 µM | > 100 µM | > 100 µM | > 100 µM | > 100 µM | > 100 µM | – | – | – | – | – | – | –
Cn1c2ccccc2c2c3c(=O)[nH][nH]c(=O)c3c3c4ccccc4n(C)c3c21 | > 100 | > 100 µM | 0.252 | > 100 µM | > 100 µM | > 100 µM | > 100 µM | > 100 µM | > 100 µM | > 100 µM | – | – | – | – | – | – | –
COc1ccc2c(c1)CCC(CN1CCN(CCOC(c3ccccc3)c3ccccc3)CC1)C2O (configuration not stated) | 30 | 30.5 µM | 69.8 | 35.3 µM | 21.9 µM | 25.6 µM | 24.4 µM | 35.7 µM | 26.8 µM | 31.5 µM | – | – | – | – | – | – | –
Clc1sc(Cl)c2c1[C@H](Br)C[C@@H]2Cl | 43.8 | > 100 µM | 39.5 | > 100 µM | > 100 µM | 37.4 µM | > 100 µM | 53.1 µM | 85.3 µM | 64.2 µM | – | – | – | – | – | – | –
CCC(C)C(NC(=O)C(CCCC[N+](=N)N)NC(=O)C(CCCC[N+](=N)N)NC(=O)c1ccc(OC)cc1)C(=O)NC(CCCC[N+](=N)N)C(=O)N1CCCC1C(=O)NC(CCCCN)C(=O)NC(CC(C)C)C(N)=O (configuration not stated) | > 100 | > 100 µM | > 100 | > 100 µM | > 100 µM | > 100 µM | > 100 µM | > 100 µM | > 100 µM | > 100 µM | – | – | – | – | – | – | –
COc1ccc(C(=C2C(=O)OC(=O)C2=C(C)C)c2ccc(OC)cc2)cc1 | > 100 | > 100 µM | > 100 | > 100 µM | > 100 µM | > 100 µM | > 100 µM | > 100 µM | > 100 µM | > 100 µM | – | – | – | – | – | – | –
CCOC(=O)C(NC(=O)CC)(Nc1ccccc1F)C(F)(F)F (configuration not stated) | > 100 | > 100 µM | > 100 | > 100 µM | > 100 µM | > 100 µM | > 100 µM | > 100 µM | > 100 µM | > 100 µM | – | – | – | – | – | – | –
COc1ccc(C(=O)/C=C/c2ccc(OCCCCCCCCCCOc3ccc(/C=C/C(=O)c4ccc(OC)c(OC)c4)cc3)cc2)c(OC)c1 | > 100 | > 100 µM | > 100 | > 100 µM | > 100 µM | > 100 µM | > 100 µM | > 100 µM | > 100 µM | > 100 µM | – | – | – | – | – | – | –
O=C(CCl)Nc1ccc(C(=O)N/N=C/c2ccc(Cl)cc2)cc1 | 10.6 | 3.6 µM and 33.1 µM | 3.93 | 6.54 µM and 32.5 µM | 4.45 µM and 13.6 µM | 6.57 µM and 9.22 µM | 4.02 µM and 38.5 µM | 6.28 µM and 5.35 µM | 9.71 µM and 7.07 µM | 4.39 µM and 3.35 µM | 1.98 | 9.09 | 2.14 | 2.92 | 20 | 2.44 | 1.87
Brc1ccc(/C(N=N/C(=N\Sc2ccccc2)c2ccc(Br)cc2)=N/Sc2ccccc2)cc1 | > 100 | > 100 µM | > 100 | > 100 µM | > 100 µM | > 100 µM | > 100 µM | > 100 µM | > 100 µM | > 100 µM | – | – | – | – | – | – | –
COC(=O)Cc1c2n(c3ccccc13)C(=O)N1c3ccccc3C(CC(=O)OC)C21 (configuration not stated) | > 100 | > 100 µM | > 100 | > 100 µM | > 100 µM | > 100 µM | > 100 µM | > 100 µM | > 100 µM | > 100 µM | – | – | – | – | – | – | –
Brc1ccc2[nH]cc(-c3csc(-c4c[nH]c5ccc(Br)cc45)n3)c2c1 | 7.27 | 5.6 µM | 2.99 | 3.4 µM | 3.14 µM | 4.8 µM | 3.93 µM | 3.45 µM | 10.3 µM | 5.31 µM | – | – | – | – | – | – | –
O=C(O)C12C3C4(C(=O)O)C1C1(C(=O)O)C2C3(C(=O)O)C41 (configuration not stated) | > 100 | > 100 µM | > 100 | > 100 µM | > 100 µM | > 100 µM | > 100 µM | > 100 µM | > 100 µM | > 100 µM | – | – | – | – | – | – | –
COc1ccc2c(c1)-c1nc(=S)n(CCN(C)C)c3ccc([N+](=O)[O-])c(c13)N2 | 13.1 | 8.04 µM | 2.07 | 2.76 µM | 7.61 µM | 4.97 µM | 7.29 µM | 0.741 µM | 2.05 µM | 7.61 µM | – | – | – | – | – | – | –
CO[C@H](C)[C@](O)(C(=O)OCC1=CCN2CC[C@@H](O)[C@H]12)C(C)C | > 100 | > 100 µM | > 100 | > 100 µM | > 100 µM | > 100 µM | > 100 µM | > 100 µM | > 100 µM | > 100 µM | – | – | – | – | – | – | –
CCOC(=O)OC1(c2ccccc2)CCN(C)CC1 | > 100 | > 100 µM | > 100 | > 100 µM | > 100 µM | > 100 µM | > 100 µM | > 100 µM | > 100 µM | > 100 µM | – | – | – | – | – | – | –
Cc1nc2ccccc2n1Cc1ccc(NC(=S)Nc2ccccc2)cc1 | > 100 | > 100 µM | > 100 | > 100 µM | 56.6 µM | > 100 µM | > 100 µM | > 100 µM | > 100 µM | > 100 µM | – | – | – | – | – | – | –
O=C1c2cccnc2C(=O)c2c1nc1ccccc1c2-c1ccc2c3c(nc4ccccc42)C(=O)c2cccnc2-c13 | 4.62 | 33.6 µM | 0.34 | 7.14 µM | 1.77 µM | 4.1 µM | 6.69 µM | 5.66 µM | 4.06 µM | 10 µM | – | – | – | – | – | – | –
